From patent US20090311321A1, “ORAL DISINTEGRATING TABLET HAVING MASKED BITTER TASTE AND METHOD FOR PRODUCTION THEREOF” (KISSEI PHARMACEUTICAL CO., LTD., priority 2006, published 2009)

Assay: Solubility of mitiglinide calcium hydrate (water, pH dependence)
Format: physicochemical
Text: The inventors of the present invention conducted studies on orally disintegrating tablets containing mitiglinide calcium hydrate. […] Because the orally disintegrating tablets are designed to quickly disintegrate in the mouth, the influence of bitterness becomes a big factor when the active ingredient has a bitter taste. […] Under these circumstances, the inventors of the present invention conducted studies to provide a mitiglinide calcium hydrate-containing orally disintegrating tablet having reduced bitterness and capable of rapidly dissolving in the digestive tract.
As mentioned above, the mitiglinide calcium hydrate-containing preparation is administered immediately before meal, and preferably, rapidly dissolves upon administration to improve postprandial hyperglycemia. It is therefore desirable in an orally disintegrating tablet of the present invention that the tablet rapidly dissolves in the digestive tract, particularly in the stomach, after having disintegrated in the mouth. […] It is therefore preferable that an orally disintegrating tablet of the present invention rapidly dissolve in the stomach and water.

O=C(O)[C@H](CC(=O)N1C[C@H]2CCCC[C@H]2C1)Cc1ccccc1 [mitiglinide calcium hydrate, (+)-Monocalcium bis[(2S,3a,7a-cis)-α-benzylhexahydro-γ-oxo-2-isoindolinebutyrate]dihydrate]
pH-dependent solubility (alkaline versus neutral to acidic pH): soluble in an alkaline pH range, and insoluble toward the neutral to acidic pH | Solubility in water (water): does not easily dissolve in water
